Paper PMC8597046, “Use of Mixture Dosing and Nonlinear Mixed Effect Modeling of Eight Environmental Contaminants in Rabbits to Improve Extrapolation Value of Toxicokinetic Data” (Environmental Health Perspectives, 2021)

Columns and labels:
[1] = TK assay, intravenous mixture dosing: serum concentrations and noncompartmental analysis (sparse data); conditions: female, rabbit, in vivo, iv; for Vd: IV mixture dosing, NCA, n=12
In short: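 Female New Zealand white rabbits received a compound mixture IV via ear-vein catheter; serum sampled sparsely (3 rabbits/time point) from 15 min to 28 d. Noncompartmental sparse-data analysis on mean profiles: linear-trapezoidal AUC, CL as dose/AUC0−inf, half-life from λZ, MRT and VSS.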

[2] = Estimation of loading and daily maintenance doses and NLME model simulations; design: species or system female rabbits; conditions: oral
In short: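 Loading and daily maintenance doses computed from TK equations for a nominal CSS of 1 ng/mL, then scaled to oral doses for female rabbits. NLME model simulated central and peripheral compartment amounts over repeated daily maintenance dosing.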

[3] = Chronic exposure: daily oral mixture for 17 wk, steady-state serum concentrations; conditions: female, New Zealand white (INRA 1777 line), rabbit, in vivo, po
In short: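 Female New Zealand white rabbits (INRA 1777 line, 2 wk old, n=16 treated, 16 vehicle controls) received an oral eight-compound mixture: loading plus maintenance dose, then daily maintenance dose for 17 wk. Dosing volume 1mL/kg adjusted weekly to predicted BW; serum obtained after clotting and centrifugation, stored at −20°C.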

[4] = New Zealand white (INRA 1777 line)

Compound: O=C(O)C(F)(F)C(F)(F)C(F)(F)C(F)(F)C(F)(F)C(F)(F)C(F)(F)F [PFOA, perfluorooctanoic acid]
- AUC(0-inf) [1, 4]: 27.4 µM·h
- Cmax [1, 4]: 2330 nM
- MRT [1, 4]: 18.7 h
- clearance [1, 4]: 0.121 mL/min/kg
- half-life [1, 4]: 31.8 h
- Vd ([1]; New Zealand white (INRA 1777 line), VSS): 0.135 L/kg
- Vd ([1]; New Zealand white (INRA 1777 line), VZ): 0.332 L/kg
- concentration at 0.3 h ([1]; New Zealand white, Serum concentration, rabbit 1, 0.30 h): 1870 nM
- concentration at 4.38 h ([1]; New Zealand white, Serum concentration, rabbit 1, 4.38 h): 1070 nM
- concentration at 24.03 h ([1]; New Zealand white, Serum concentration, rabbit 1, 24.03 h): 240 nM
- concentration at 0.28 h ([1]; New Zealand white, Serum concentration, rabbit 2, 0.28 h): 2100 nM
- concentration at 4.05 h ([1]; New Zealand white, Serum concentration, rabbit 2, 4.05 h): 1020 nM
- concentration at 24 h ([1]; New Zealand white, Serum concentration, rabbit 2, […]): 160 nM
- concentration at 0.35 h ([1]; New Zealand white, Serum concentration, rabbit 3, 0.35 h): 2330 nM
- concentration at 4.05 h ([1]; New Zealand white, Serum concentration, rabbit 3, 4.05 h): 1450 nM
- concentration at 24 h ([1]; New Zealand white, Serum concentration, rabbit 3, […]): 290 nM
- concentration at 0.62 h ([1]; New Zealand white, Serum concentration, rabbit 4, 0.62 h): 1700 nM
- concentration at 72 h ([1]; New Zealand white, Serum concentration, rabbit 4, 72.00 h): 60 nM
- concentration at 0.75 h ([1]; New Zealand white, Serum concentration, rabbit 5, 0.75 h): 1860 nM
- concentration at 72.03 h ([1]; New Zealand white, Serum concentration, rabbit 5, 72.03 h): 34 nM
- concentration at 0.57 h ([1]; New Zealand white, Serum concentration, rabbit 6, 0.57 h): 1670 nM
- concentration at 71.97 h ([1]; New Zealand white, Serum concentration, rabbit 6, 71.97 h): 31 nM
- concentration at 11.98 h ([1]; New Zealand white, Serum concentration, rabbit 7, 11.98 h): 840 nM
- concentration at 168 h ([1]; New Zealand white, Serum concentration, rabbit 7, 168.00 h): 5.3 nM
- concentration at 12.02 h ([1]; New Zealand white, Serum concentration, rabbit 8, 12.02 h): 520 nM
- concentration at 167.92 h ([1]; New Zealand white, Serum concentration, rabbit 8, 167.92 h): 4.3 nM
- concentration at 11.97 h ([1]; New Zealand white, Serum concentration, rabbit 9, 11.97 h): 590 nM
- concentration at 168 h ([1]; New Zealand white, Serum concentration, rabbit 9, 168.00 h): 3 nM
- concentration at 671.96 h ([1]; New Zealand white, Serum concentration, rabbit 10, 671.96 h): < 0.24 nM
- concentration at 672 h ([1]; New Zealand white, Serum concentration, rabbit 11, 672.00 h): < 0.24 nM
- concentration at 671.83 h ([1]; New Zealand white, Serum concentration, rabbit 12, 671.83 h): < 0.24 nM
- Computed maintenance dose ([2]; daily, scaled to the targeted CSS of Table 6): 9.5 µg/kg
- Computed loading dose ([2]; scaled to the targeted CSS of Table 6): 10 µg/kg
- Daily maintenance dose ([2]; to maintain serum concentration of 1 ng/mL, daily CL×Css/F, DEHP dose for MEHP in serum): 0.18 µg/kg
- Loading dose ([2]; to rapidly attain serum concentration of 1 ng/mL, Vss×Css/F, DEHP dose for MEHP in serum): 0.19 µg/kg
- concentration at 17 wk [3]: 43 ± 9.4 ng/mL
